Laboratory results reported in patent US12258583B2, “Embryonic erythroblast-containing cell population and method for producing same, cell culture composition, and compound test method” (SUMITOMO CHEMICAL COMPANY, LIMITED, priority 2018, dated 2025).

Experiments:
[1] = test system: embryonic erythroblast-containing cell population produced from human iPS cells; test: Compound test using embryonic erythroblast-containing cell population produced from human iPS cells (heme, PPIX by LC-MS, viable cell count, viability); format: cell-based; conditions: DHA 0.5 or 1 μM, SA 10 or 30 μM, Day 18 (Day 8 after start of step (C)); for viable cell count: FIG. 12C; for viability of cells: FIG. 12D
Procedure: The procedure illustrated in FIG. 11 was used to conduct a compound test using an embryonic erythroblast-containing cell population produced from human iPS cells. Differentiation of human iPS cells was induced by substantially the same procedure as in Example 1 to produce an embryonic erythroblast-containing cell population at Day 10 after the start of suspension culture (step (A)) (Step (A) and Step (B)). The cells were centrifuged for 5 min at 1000 rpm in a centrifuge (CF8DL; manufactured by Koki Holdings Co., Ltd.) to remove the supernatant. Next, STEMdiff+B medium was added to the precipitate. Subsequently, the cells were suspended and seeded at 2×10^5 cells in 1.5 mL of medium per well of a […] 6-well plate (manufactured by Corning, Inc.). Then, suspension culture was started (step (C) was started). To the medium at that time was added, as a test compound, dihydroartemisinin (hereinafter, referred to as “DHA”) (at a final concentration of 0.5 μM or 1 μM) or succinylacetone (hereinafter, referred to as “SA”) (at a final concentration of 10 μM or 30 μM). As a solvent control, DMSO was added.
At Day 18 (Day 8 after the start of step (C)) after the start of suspension culture (step (A)), the resulting cell population-containing medium was collected from the 6-well plate. Next, 0.4×10^5 cells to 1×10^5 cells were pipetted into an Eppendorf tube, and centrifuged for 3 min at 7500 rpm in a centrifuge (centrifuge 5424; manufactured by Eppendorf, Inc.) to remove the supernatant and give a cell pellet. The concentration of heme or protoporphyrin IX (hereinafter, referred to as “PPIX”) included in this cell pellet was quantified using liquid chromatography-mass spectrometry (LC-MS) (step (D)). A change in the concentration of heme or PPIX by addition of a test compound was examined to be able to evaluate how the test compound affected the heme biosynthesis pathway. In addition, the number of cells collected after the culture was counted to determine viability.
The concentration of heme or PPIX was represented in weight per 10^6 cells (ng/10^6 cells). DHA or SA, which is known to inhibit heme synthesis, caused a decrease in the heme concentration at Day 18 (Day 8 after the start of step (C)) after the start of suspension culture (step (A)) when compared to a solvent control (FIG. 12A). […] A hypothesis that DHA can induce anemia by inhibiting the most downstream ferrochelatase has been proposed (Clark et al. (2018) Birth Defects Research 110: 553-578). […] In addition, DHA or SA decreased the viable cell count and viability of cells included in the cell population (FIGS. 12C and D). In Example 1, the cell population included embryonic erythroblasts at a high percentage.

[2] = target: T1, aminolevulinic acid dehydrogenase (Homo sapiens, UniProt P13716); conditions: Sassa et al. (1983); cited from earlier work
T1 sequence (P13716 1-330): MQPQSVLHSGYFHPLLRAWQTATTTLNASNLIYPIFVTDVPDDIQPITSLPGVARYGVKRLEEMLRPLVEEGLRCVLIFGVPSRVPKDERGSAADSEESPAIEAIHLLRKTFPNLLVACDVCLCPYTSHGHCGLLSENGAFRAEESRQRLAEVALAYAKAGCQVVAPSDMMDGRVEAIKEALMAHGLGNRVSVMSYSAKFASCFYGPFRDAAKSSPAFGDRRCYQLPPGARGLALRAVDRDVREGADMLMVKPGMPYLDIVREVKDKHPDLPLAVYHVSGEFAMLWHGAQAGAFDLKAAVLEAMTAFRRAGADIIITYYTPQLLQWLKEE

K562 cells [3] = conditions: known from the art; cited from earlier work
K562 cells [4] = test: Differentiation culture of K562 cells with inducer, β-globin gene family expression by real-time PCR; format: cell-based, human; conditions: 1 mM sodium butyrate
Procedure: (§1) The percentage of expression of the β-globin gene family expressed in cells of the above cell population was checked by real-time PCR. The floating cell population-containing medium at Day 10, 14, or 18 after the start of suspension culture (step (1)) was centrifuged for 5 min at 1000 rpm in a centrifuge (CF8DL; manufactured by Koki Holdings Co., Ltd.) to remove the supernatant. The resulting cells were washed with PBS (manufactured by Thermo Fisher Scientific, Inc.), centrifuged for 3 min at 7500 rpm in a centrifuge (centrifuge 5424; manufactured by Eppendorf, Inc.), and then subjected to total RNA extraction from the cells using an RNeasy Micro Kit (manufactured by QIAGEN, Inc.). The resulting total RNA was subjected to reverse transcription using SuperScript III (manufactured by Thermo Fisher Scientific, Inc.). Subsequently, the resulting cDNA was used as a template to perform real-time PCR by using TaqMan probes (manufactured by Thermo Fisher Scientific, Inc.) and a TaqMan Fast Advanced Master Mix (manufactured by Thermo Fisher Scientific, Inc.) in a 96-well plate under Fast PCR conditions according to the instruction in the package insert. The TaqMan probes used were human probes designated in Table 2.
(§2) The gene product containing a TaqMan probe target sequence for each member of the β-globin gene family, namely ε-globin, γ-globin, or β-globin, was used to draw a standard curve. Then, the mRNA copy number for each β-globin gene family member expressed was quantified. The value obtained by dividing the copy number for each β-globin gene family member expressed by the total β-globin gene family copy number was shown as the percentage of expression of each β-globin gene family member. The production of embryonic erythroblast-containing cell population and the analysis by real-time PCR were independently triplicated to calculate the average and the standard error.
Human chronic myeloid leukemia-derived cell line K562 cells (obtained from Health Science Research Resources Bank) were used as other hematopoietic cells to check expression of ε-globin. K562 cells were cultured and maintained as follows. RPMI medium (Roswell Park Memorial Institute 1640; manufactured by Thermo Fisher Scientific, Inc.) containing 10% FBS (manufactured by Corning, Inc.) and 1% penicillin-streptomycin (manufactured by Sigma-Aldrich Co. LLC) (hereinafter, referred to as “K562 medium”) was used, and the cells were subjected to suspension culture on a low-adherent 6-cm dish (manufactured by Sumitomo Bakelite Co., Ltd.). The floating cell-containing medium was collected once every 7 days, and centrifuged for 5 min at 1000 rpm in a centrifuge (SCTSBA; manufactured by Koki Holdings Co., Ltd.) to remove the supernatant. The K562 cells were suspended in 5 mL of K562 medium and seeded at 5×10^5 cells per dish, and cultured under conditions at 37° C. and 5% CO2.
It has been known that addition of an inducer (sodium butyrate) causes an increase in the expression of εs-globin in K562 cells. Thus, a change in expression of ε-globin after addition of sodium butyrate was checked over time. For differentiation culture of K562 cells, K562 medium containing 1 mM sodium butyrate (manufactured by Sigma-Aldrich Co. LLC) was used. The cells were suspended in 5 mL of the above medium and seeded at 5×10^5 cells per low-adherent 6-cm dish, and cultured under conditions at 37° C. and 5% CO2. The floating cell-containing medium was collected at Day 0, 2, 4, or 8 after the start of differentiation culture, and centrifuged for 5 min at 1000 rpm in a centrifuge (SCTSBA; manufactured by Koki Holdings Co., Ltd.) to remove the supernatant.
Like the evaluation protocol by real-time PCR in Example 1, the percentage of expression of each β-globin gene family member expressed in cells was determined by real-time PCR. […] About 30% or less of the β-globin gene family were an embryonic erythroblast marker ε-globin gene under any of the conditions.

REL cells = test: Differentiation culture of REL cells with inducer, β-globin gene family expression by real-time PCR; format: cell-based, rat; conditions: 1 mM HMBA
Procedure: as §1, §2
REL cells, rat erythroleukemia cells, (obtained from Institute of Molecular Genetics and Genetic Engineering (Prof. Popovic Serbia)) were used as other hematopoietic cells to check a change in expression of ε-globin gene. REL cells were cultured and maintained as follows. RPMI medium (Roswell Park Memorial Institute 1640; manufactured by Thermo Fisher Scientific, Inc.) containing […] FBS (manufactured by Corning, Inc.) and 1% penicillin-streptomycin (manufactured by Sigma-Aldrich Co. LLC) (hereinafter, referred to as “REL medium”) was used, and the cells were subjected to suspension culture on a low-adherent 6-cm dish (manufactured by Sumitomo Bakelite Co., Ltd.). The floating cell-containing medium was collected once every 2 days, and centrifuged for 5 min at 1000 rpm in a centrifuge (SCT5BA; manufactured by Koki Holdings Co., Ltd.) to remove the supernatant. The REL cells were suspended in 5 mL of REL medium and seeded at 5×10^5 cells per dish, and cultured under conditions at 37° C. and 5% CO2.
An inducer (hexamethylene bisacetamide: HMBA) was added to REL cells to check a change in expression of ε-globin over time. For differentiation culture of REL cells, the medium used was REL medium containing HMBA (at a final concentration of 1 mM; manufactured by Sigma-Aldrich Co. LLC.). The REL cells were suspended in 5 mL of the above medium and seeded at 5×10^5 cells per low-adherent 6-cm dish (manufactured by Sumitomo Bakelite Co., Ltd.), and then cultured under conditions at 37° C. and 5% CO2. The floating cell-containing medium was collected at Day 0, 2, 4, or 8 after the start of differentiation culture, and centrifuged for 5 min at 1000 rpm in a centrifuge (SCT5BA; manufactured by Koki Holdings Co., Ltd.) to remove the supernatant.
Like the evaluation protocol by real-time PCR in Example 1, the percentage of expression of each β-globin gene family member expressed in cells was determined by real-time PCR. […] Almost all of the β-globin gene family were an adult erythroblast marker β-globin gene under any of the conditions.

[5] = Day 2 of differentiation culture
[6] = Day 4 of differentiation culture
[7] = Day 8 of differentiation culture

CC(=O)CC(=O)CCC(=O)O [SA, succinylacetone]
viable cell count [1]: decreased | viability of cells [1]: decreased | heme concentration compared to a solvent control ([1]; LC-MS, ng/10^6 cells, FIG. 12A): decrease | PPIX (protoporphyrin IX) concentration ([1]; LC-MS, ng/10^6 cells, FIG. 12B): did not largely affect | inhibition of aminolevulinic acid dehydrogenase, upstream in the heme biosynthesis pathway [2]: inhibits

CCCC(=O)[O-].[Na+] [sodium butyrate]
expression of ε-globin in K562 cells after addition of inducer (K562 cells [3]): increase | Relative expression level of β-Globin (HBB) in the β-globin gene family (K562 cells [4]; [5]): 0 ± 0.0% | Relative expression level of γ-Globin (HBG2/1) in the β-globin gene family (K562 cells [4]; [5]): 75 ± 1.6% | Relative expression level of ε-Globin (HBE1) in the β-globin gene family (K562 cells [4]; [5]): 25 ± 1.6% | Relative expression level of β-Globin (HBB) in the β-globin gene family (K562 cells [4]; [6]): 0 ± 0.0% | Relative expression level of γ-Globin (HBG2/1) in the β-globin gene family (K562 cells [4]; [6]): 73 ± 1.3% | Relative expression level of ε-Globin (HBE1) in the β-globin gene family (K562 cells [4]; [6]): 27 ± 1.3% | Relative expression level of β-Globin (HBB) in the β-globin gene family (K562 cells [4]; [7]): 0 ± 0.0% | Relative expression level of γ-Globin (HBG2/1) in the β-globin gene family (K562 cells [4]; [7]): 70 ± 1.9% | Relative expression level of ε-Globin (HBE1) in the β-globin gene family (K562 cells [4]; [7]): 30 ± 1.9%

CC(=O)NCCCCCCNC(C)=O [HMBA, hexamethylene bisacetamide]
Relative expression level of β-Globin (Hbb) in the β-globin gene family (REL cells; [5]): 100 ± 0.0% | Relative expression level of γ-Globin (Hbg1) in the β-globin gene family (REL cells; [5]): 0 ± 0.0% | Relative expression level of ε-Globin (Hbe1) in the β-globin gene family (REL cells; [5]): 0 ± 0.0% | Relative expression level of β-Globin (Hbb) in the β-globin gene family (REL cells; [6]): 100 ± 0.0% | Relative expression level of γ-Globin (Hbg1) in the β-globin gene family (REL cells; [6]): 0 ± 0.0% | Relative expression level of ε-Globin (Hbe1) in the β-globin gene family (REL cells; [6]): 0 ± 0.0% | Relative expression level of β-Globin (Hbb) in the β-globin gene family (REL cells; [7]): 99 ± 0.2% | Relative expression level of γ-Globin (Hbg1) in the β-globin gene family (REL cells; [7]): 1 ± 0.1% | Relative expression level of ε-Globin (Hbe1) in the β-globin gene family (REL cells; [7]): 0 ± 0.0%

C[C@H]1[C@@H](O)O[C@@H]2O[C@@]3(C)CC[C@H]4[C@H](C)CC[C@@H]1[C@@]24OO3 [DHA, dihydroartemisinin]
viable cell count [1]: decreased | viability of cells [1]: decreased
